Where two headings read alike, the source gives them in different places. Where a SMILES comes first, the peptide text is derived from it. The star is where a group is joined. MeOSuc = COC(=O)CCC(=O)*; CH2Cl = ClC*
Experiments:
[1] = target: T1, Elastase from porcine pancreas (Sus scrofa, UniProt P00772); assay: Elastase inhibition assay, spectrophotometric (N-succinyl-Ala-Ala-Ala-p-nitroanilide, 405 nm); type: biochemical
T1 construct: purchased Sigma-Aldrich; host or cells: porcine pancreas (tissue-derived commercial powder)
Protocol: In order to evaluate the effect of these compounds (ILs and IL-APIs), an enzymatic reaction based on the conversion of the substrate N-succinyl-Ala-Ala-Ala-p-nitroaniline to succinyl-Ala-Ala-Ala and p-nitroaniline by the enzyme elastase was performed. The enzyme activity is determined by the formation of p-nitroaniline, the chromogenic compound resulted from the reaction. Substrate degradation was continuously monitored in the spectrophotometer by measuring increasing absorbance at 405 nm.
The EC50 values for each IL were calculated as the inhibitory concentration causing a 50% decrease in Elastase activity. The EC50 values were automatically calculated, using GraphPad prism8 software.
All the reagents (HEPES buffer, N-succinyl-Ala-Ala-Ala p-nitroanilide, Elastase and acetate buffer) were added sequentially in eppendorf, being the final volume equal to 250 µL. So, in each eppendorf it was added 137.5 µL of HEPES buffer, 10 µL of N-succinyl-Ala-Ala-Ala p-nitroanilide substrate, 30 µL of elastase, 70 µL of acetate buffer, 2.5 µL of DMSO. In inhibitory assays was 87.5 µL of HEPES buffer, 10 µL of N-succinyl-Ala-Ala-Ala p-nitroanilide substrate, 30 µL of elastase, 70 µL of acetate buffer, 2.5 µL of DMSO, and 50 µL of IL/IL-APIs.
Next, the eppendorf was placed inside the thermostatic bath at 37 °C for 10 min.
After 10 min, the reaction product was measured in spectrophotometer at 405 nm.
All assays were performed in batch mode. Thus, the different reagents were placed manually in an eppendorf at the desired concentrations and volumes. After, they were placed in a thermostatic bath where the reaction temperature was regulated for the desired period. The succinyl-Ala-Ala-Ala and p-nitroaniline result from the cleavage of the substrate N-succinyl-Ala-Ala-Ala-p-nitroaniline by porcine elastase enzyme. The enzyme activity was determined by monitoring the chromogenic compound, p-nitroaniline, at 405 nm. All results of ILs and IL-APIs were obtained in duplicate.

carboxylesterase = conditions: read-out: EC50 for carboxylesterase; compared with elastase values; cited from earlier work
[2] = IL-APIs, aqueous solutions, 37 °C, 10 min, substrate 100 µM, duplicate, read-out: EC50 (µM) ± SD

T1 sequence (P00772 27-266): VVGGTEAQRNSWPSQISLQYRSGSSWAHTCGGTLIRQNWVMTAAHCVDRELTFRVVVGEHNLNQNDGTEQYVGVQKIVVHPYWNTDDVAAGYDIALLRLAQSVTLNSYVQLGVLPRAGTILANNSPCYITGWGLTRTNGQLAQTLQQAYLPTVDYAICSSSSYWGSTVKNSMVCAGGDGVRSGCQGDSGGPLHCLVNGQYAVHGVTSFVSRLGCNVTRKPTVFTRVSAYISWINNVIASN

Row | Compound | EC50 [1, 2] [µM] | further results
1 | CC(C)(C)CC(C)(C)c1ccc(OCCOCC[N+](C)(C)Cc2ccccc2)cc1.O=S(=O)([N-]S(=O)(=O)C(F)(F)F)C(F)(F)F [Benzethonium bistriflimide] | > 1000 | 
2 | O=S(=O)(NS(=O)(=O)C(F)(F)F)C(F)(F)F [Lithium bistriflimide] | 209 ± 12 | 
3 | COC(=O)CCC(=O)N[C@@H](C)C(=O)N[C@@H](C)C(=O)N1CCC[C@H]1C(=O)N[C@H](C(=O)CCl)C(C)C [MeOSuc-Ala-Ala-Pro-Val-chloromethylketone, reference compound] (MeOSuc-AAPV-CH2Cl) |  | EC50 ([1]; ILs and positive control, aqueous solutions, 37 °C, 10 min, substrate 100 µM, duplicate, read-out: EC50 (mM) ± SD): 470 ± 50 µM
4 | O=C([O-])c1ccccc1O.[Na+] [Sodium salicylate, reference compound] |  | EC50 (carboxylesterase): 116.99 ± 0.02 µM; EC50 ([1]; read-out: EC50 (µM) ± SD): 124 ± 4 µM
5 | CCCC[P+](C)(CCCC)CCCC [Tributylmethylphosphonium salicylate] | > 200 | 
6 | CCCCC(CC)COC(=O)CC(C(=O)OCC(CC)CCCC)S(=O)(=O)[O-].CCCCCCCCCCCCCC[P+](CCCCCC)(CCCCCC)CCCCCC [Trihexyltetradecylphosphonium docusate] | > 700 | 
7 | CCCCCCCCCCCCCC[P+](CCCCCC)(CCCCCC)CCCCCC [Trihexyltetradecyphosphonium chloride] | > 100 | 
8 | Benzalkonium salicylate | 230 ± 20 | 
9 | Benzethonium docusate | > 200 | 
10 | Benzethonium salicylate | > 500 | 
